Results: patent publication US7569578B2, “Heterocyclic anti-migraine agents” (Bristol-Meyers Squibb Company, priority 2003, dated 2009)

Biological target: T1, Human CGRP1 Receptor (Homo sapiens, UniProt O60894+Q16602)
T1 construct: endogenous in cells; host or cells: SK-N-MC cells (membrane homogenate)
Assay: CGRP Binding Assay ([125I]-CGRP radioligand displacement, SK-N-MC membrane homogenate)
Details: [125I]-CGRP displacement, SK-N-MC homogenate, room temperature 2 h; read-out: Human CGRP1 Receptor IC50
Description: Tissue Culture. SK-N-MC cells were grown at 37° C. in 5% CO2 as a monolayer in medium consisting of MEM with Earle's salts and L-glutamine (Gibco) supplemented with 10% fetal bovine serum (Gibco).
Cell Pellets. […] The cells were transferred from plates to polypropylene tubes (16×100 mm) and homogenized using a polytron. Homogenates were centrifuged at 32,000×g for 30 min. The pellets were resuspended in cold hypotonic lysis buffer with 0.1% mammalian protease inhibitor cocktail (Sigma) and assayed for protein concentration. The SK-N-MC homogenate was then aliquoted and stored at −80° C. until needed.
Radioligand Binding Assay. The compounds of invention were solubilized and carried through serial dilutions using 100% DMSO. Aliquots from the compound serial dilutions were further diluted 25 fold into assay buffer (50 mM Tris-Cl pH 7.5, 5 mM MgCl2, 0.005% Triton X-100) and transferred (volume 50 μl) into 96 well assay plates. […] SK-N-MC pellets were thawed, diluted in assay buffer with fresh 0.1% mammalian protease inhibitor cocktail (Sigma), and homogenized again. SK-N-MC homogenate (5 μg/well) was added in a volume of 100 μl. The assay plates were then incubated at room temperature for 2 h. Assays were stopped by addition of excess cold wash buffer (20 mM Tris-Cl pH 7.5, 0.1% BSA) immediately followed by filtration over glass fiber filters (Whatman GF/B) previously soaked in 0.5% PEI. Non-specific binding was defined with 1 μM beta-CGRP. Protein bound radioactivity was determined using a gamma or scintillation counter.

T1 sequence (Q16602 23-461): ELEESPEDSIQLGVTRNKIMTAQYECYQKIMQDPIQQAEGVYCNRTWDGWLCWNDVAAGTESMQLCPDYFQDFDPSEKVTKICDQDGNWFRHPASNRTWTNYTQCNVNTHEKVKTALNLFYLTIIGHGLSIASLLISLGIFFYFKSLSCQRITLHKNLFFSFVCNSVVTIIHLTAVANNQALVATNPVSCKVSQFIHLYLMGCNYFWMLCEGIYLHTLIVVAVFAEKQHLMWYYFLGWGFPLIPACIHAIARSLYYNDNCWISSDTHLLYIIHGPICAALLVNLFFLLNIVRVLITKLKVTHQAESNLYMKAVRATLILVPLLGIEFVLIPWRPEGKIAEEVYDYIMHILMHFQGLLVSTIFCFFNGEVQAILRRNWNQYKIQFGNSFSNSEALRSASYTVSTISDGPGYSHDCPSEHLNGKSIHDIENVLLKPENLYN
T1 sequence (O60894 27-148): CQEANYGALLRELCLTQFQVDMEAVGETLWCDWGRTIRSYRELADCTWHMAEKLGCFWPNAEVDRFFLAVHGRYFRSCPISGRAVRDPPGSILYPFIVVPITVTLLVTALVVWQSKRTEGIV

SMILES | IC50 [nM]
Cc1cc(CC(NC(=O)N2CCC(N3Cc4ccccc4NC3=O)CC2)c2nccn2Cc2cc(F)cc(F)c2)cc2cn[nH]c12 (racemic) [Example 69, (±)-N-(1-(1-(3,5-Difluorobenzyl)-1H-imidazol-2-yl)-2-(7-methyl-1H-indazol-5-yl)ethyl)-4-(2-oxo-1,2-dihydroquinazolin-3(4H)-yl)piperidine-1-carboxamide] | < 10
Cc1cc(CC(NC(=O)N2CCC(N3Cc4ccccc4NC3=O)CC2)c2nccn2CCc2ccccc2)cc2cn[nH]c12 (racemic) [Example 70, (±)-N-(2-(7-Methyl-1H-indazol-5-yl)-1-(1-phenethyl-1H-imidazol-2-yl)ethyl)-4-(2-oxo-1,2-dihydroquinazolin-3(4H)-yl)piperidine-1-carboxamide] | < 10
Cc1cc(CC(NC(=O)N2CCC(N3Cc4ccccc4NC3=O)CC2)c2nccn2Cc2ccncc2)cc2cn[nH]c12 (racemic) [Example 73, (±)-N-(2-(7-Methyl-1H-indazol-5-yl)-1-(1-(pyridin-4-ylmethyl)-1H-imidazol-2-yl)ethyl)-4-(2-oxo-1,2-dihydroquinazolin-3(4H)-yl)piperidine-1-carboxamide] | < 10
Cc1cc(CC(NC(=O)N2CCC(N3Cc4ccccc4NC3=O)CC2)c2nccn2Cc2cccc(C#N)c2)cc2cn[nH]c12 (racemic) [Example 74, (±)-N-(1-(1-(3-Cyanobenzyl)-1H-imidazol-2-yl)-2-(7-methyl-1H-indazol-5-yl)ethyl)-4-(2-oxo-1,2-dihydroquinazolin-3(4H)-yl)piperidine-1-carboxamide] | < 10
Cc1cc(CC(NC(=O)N2CCC(N3Cc4ccccc4NC3=O)CC2)c2nccn2Cc2ccc(C(C)(C)C)cc2)cc2cn[nH]c12 (racemic) [Example 75, (±)-N-(1-(1-(4-tert-Butylbenzyl)-1H-imidazol-2-yl)-2-(7-methyl-1H-indazol-5-yl)ethyl)-4-(2-oxo-1,2-dihydroquinazolin-3(4H)-yl)piperidine-1-carboxamide] | < 10
Cc1cc(CC(NC(=O)N2CCC(N3Cc4ccccc4NC3=O)CC2)c2nccn2Cc2cccc(C(=O)O)c2)cc2cn[nH]c12 (racemic) [Example 76, (±)-3-((2-(2-(7-Methyl-1H-indazol-5-yl)-1-(4-(2-oxo-1,2-dihydroquinazolin-3(4H)-yl)piperidine-1-carboxamido)ethyl)-1H-imidazol-1-yl)methyl)benzoic acid] | < 10
Cc1cc(CC(NC(=O)N2CCC(N3Cc4ccccc4NC3=O)CC2)c2nccn2Cc2cccc(C(N)=O)c2)cc2cn[nH]c12 (racemic) [Example 77, (±)-N-(1-(1-(3-Carbamoylbenzyl)-1H-imidazol-2-yl)-2-(7-methyl-1H-indazol-5-yl)ethyl)-(2-oxo-1,2-dihydroquinazolin-3(4H)-yl)piperidine-1-carboxamide] | < 10
Cc1cc(CC(NC(=O)N2CCC(N3Cc4ccccc4NC3=O)CC2)c2nccn2-c2ccccc2[N+](=O)[O-])cc2cn[nH]c12 (racemic) [Example 79, (±)-N-(2-(7-Methyl-1H-indazol-5-yl)-1-(1-(2-nitrophenyl)-1H-imidazol-2-yl)ethyl)-4-(2-oxo-1,2-dihydroquinazolin-3(4H)-yl)piperidine-1-carboxamide] | < 10
Cc1cc(CC(NC(=O)N2CCC(N3Cc4ccccc4NC3=O)CC2)c2ncc(Br)n2Cc2cc(F)cc(F)c2)cc2c[nH]nc12 (racemic) [Example 88, (±)-N-(1-(1-(3,5-Difluorobenzyl)-5-bromo-1H-imidazol-2-yl)-2-(7-methyl-2H-indazol-5-yl)ethyl)-4-(2-oxo-1,2-dihydroquinazolin-3(4H)-yl)piperidine-1-carboxamide] | < 10
Cc1cn(Cc2cccc(F)c2)c(C(Cc2cc(C)c3[nH]ncc3c2)NC(=O)N2CCC(N3Cc4ccccc4NC3=O)CC2)n1 (racemic) [Example 89, (±)-N-(1-(1-(3-Fluorobenzyl)-4-methyl-1H-imidazol-2-yl)-2-(7-methyl-1H-indazol-5-yl)ethyl)-4-(2-oxo-1,2-dihydroquinazolin-3(4H)-yl)piperidine-1-carboxamide] | < 10
Cc1cc(CC(NC(=O)N2CCC(N3Cc4ccccc4NC3=O)CC2)c2nccn2Cc2cccnc2)cc2cn[nH]c12 (racemic) [Example 91, (±)-N-(2-(7-Methyl-1H-indazol-5-yl)-1-(1-(pyridin-3-ylmethyl)-1H-imidazol-2-yl)ethyl)-4-(2-oxo-1,2-dihydroquinazolin-3(4H)-yl)piperidine-1-carboxamide] | < 10
Cc1cc(CC(NC(=O)N2CCC(N3Cc4ccccc4NC3=O)CC2)c2nccn2Cc2ccccn2)cc2cn[nH]c12 (racemic) [Example 92, (±)-N-(2-(7-Methyl-1H-indazol-5-yl)-1-(1-(pyridin-2-ylmethyl)-1H-imidazol-2-yl)ethyl)-4-(2-oxo-1,2-dihydroquinazolin-3(4H)-yl)piperidine-1-carboxamide] | < 10

More lines, now with the values ahead:

IC50 [nM] | SMILES
< 10 | Cc1cc(CC(NC(=O)N2CCC(N3Cc4ccccc4NC3=O)CC2)c2nccn2Cc2cccc(F)c2)cc2cn[nH]c12 (racemic) [Example 68, (±)-N-(1-(1-(3-Fluorobenzyl)-1H-imidazol-2-yl)-2-(7-methyl-1H-indazol-5-yl)ethyl)-4-(2-oxo-1,2-dihydroquinazolin-3(4H)-yl)piperidine-1-carboxamide]
< 10 | Cc1cc(CC(NC(=O)N2CCC(N3Cc4ccccc4NC3=O)CC2)c2nccn2Cc2ccccc2F)cc2cn[nH]c12 (racemic) [Example 71, (±)-N-(1-(1-(2-Fluorobenzyl)-1H-imidazol-2-yl)-2-(7-methyl-1H-indazol-5-yl)ethyl)-4-(2-oxo-1,2-dihydroquinazolin-3(4H)-yl)piperidine-1-carboxamide]
< 10 | Cc1cc(CC(NC(=O)N2CCC(N3Cc4ccccc4NC3=O)CC2)c2nccn2Cc2ccc(F)cc2)cc2cn[nH]c12 (racemic) [Example 72, (±)-N-(1-(1-(4-Fluorobenzyl)-1H-imidazol-2-yl)-2-(7-methyl-1H-indazol-5-yl)ethyl)-4-(2-oxo-1,2-dihydroquinazolin-3(4H)-yl)piperidine-1-carboxamide]
100 to 1000 | Cc1cc(CC(NC(=O)N2CCC(N3Cc4cccc(F)c4NC3=O)CC2)c2nnn[nH]2)cc2cn[nH]c12 (racemic) [Example 80, (±)-4-(8-Fluoro-2-oxo-1,2-dihydroquinazolin-3 [4H]-yl)-N-(2{7-methyl-1H-indazol-5-yl}-1-{1H-tetrazol-5-yl}ethyl)piperidin-1-carboxamide]
< 10 | Cc1cc(CC(NC(=O)N2CCC(N3Cc4cccc(F)c4NC3=O)CC2)c2nnnn2CC2CCNCC2)cc2cn[nH]c12 (racemic) [Example 81, (±)-4-(8-Fluoro-2-oxo-1,2-dihydroquinazolin-3(4H)-yl)-N-(2-[7-methyl-1H-indazol-5-yl]-1-[1-(piperidin-4-ylmethyl)-1H-tetrazol-5-yl]ethyl)piperidin-1-carboxamide]
10 to 100 | Cc1cc(CC(NC(=O)N2CCC(N3Cc4cccc(F)c4NC3=O)CC2)c2nnn(CC3CCNCC3)n2)cc2cn[nH]c12 (racemic) [Example 82, (±)-4-(8-Fluoro-2-oxo-1,2-dihydroquinazolin-3(4H)-yl)-N-(2-[7-methyl-1H-indazol-5-yl]-1-[2-(piperidin-4-ylmethyl)-1H-tetrazol-5-yl]ethyl)piperidin-1-carboxamide]
< 10 | Cc1cc(CC(NC(=O)N2CCC(N3Cc4cccc(F)c4NC3=O)CC2)c2nnc3ccccn23)cc2cn[nH]c12 (racemic) [Example 83, (±)-N-(1-([1,2,4]Triazolo [4,3-a]pyridin-3-yl)-2-(7-methyl-1H-indazol-5-yl)ethyl)-4-(8-fluoro-2-oxo-1,2-dihydroquinazolin-3(4H)-yl)piperidine-1-carboxamide]
< 10 | Cc1cc(CC(NC(=O)N2CCC(N3Cc4ccccc4NC3=O)CC2)c2nnnn2CC(C)(C)C)cc2cn[nH]c12 (racemic) [Example 84, (±)-N-(2-(7-Methyl-1H-indazol-5-yl)-1-(1-neopentyl-1H-tetrazol-5-yl)ethyl)-4-(2-oxo-1,2-dihydroquinazolin-3(4H)-yl)piperidine-1-carboxamide]
< 10 | Cc1cc(CC(NC(=O)N2CCC(N3Cc4ccccc4NC3=O)CC2)c2ncc(Br)[nH]2)cc2cn[nH]c12 (racemic) [Example 86, (±)-N-(1-(4-Bromo-1H-imidazol-2-yl)-2-(7-methyl-1H-indazol-5-yl)ethyl)-4-(2-oxo-1,2-dihydroquinazolin-3(4H)-yl)piperidine-1-carboxamide]
< 10 | Cc1cc(CC(NC(=O)N2CCC(N3Cc4ccccc4NC3=O)CC2)c2nc(Br)c(Br)[nH]2)cc2cn[nH]c12 (racemic) [Example 87, (±)-N-(1-(4,5-Dibromo-1H-imidazol-2-yl)-2-(7-methyl-1H-indazol-5-yl)ethyl)-4-(2-oxo-1,2-dihydroquinazolin-3(4H)-yl)piperidine-1-carboxamide]
100 to 1000 | Cc1c[nH]c(C(Cc2cc(C)c3[nH]ncc3c2)NC(=O)N2CCC(N3Cc4ccccc4NC3=O)CC2)n1 (racemic) [Example 90, (±)-N-(1-(4-Methyl-1H-imidazol-2-yl)-2-(7-methyl-1H-indazol-5-yl)ethyl)-4-(2-oxo-1,2-dihydroquinazolin-3(4H)-yl)piperidine-1-carboxamide]
